Test results reported in ChEMBL document CHEMBL1150477, “Development of angiotensin II antagonists with equipotent affinity for human AT1 and AT2 receptor subtypes” (Bioorg Med Chem Lett, 1994).
Substitutions are numbered along the chain they refer to. pIC50: −log10 of the molar value.

Experiments:
[1] = biological target: T1, Type-2 angiotensin II receptor (Rattus norvegicus, UniProt P35351); test: […] inhibitory concentration against Angiotensin II, type 2 of rat midbrain membrane
T1 sequence (P35351 whole entry): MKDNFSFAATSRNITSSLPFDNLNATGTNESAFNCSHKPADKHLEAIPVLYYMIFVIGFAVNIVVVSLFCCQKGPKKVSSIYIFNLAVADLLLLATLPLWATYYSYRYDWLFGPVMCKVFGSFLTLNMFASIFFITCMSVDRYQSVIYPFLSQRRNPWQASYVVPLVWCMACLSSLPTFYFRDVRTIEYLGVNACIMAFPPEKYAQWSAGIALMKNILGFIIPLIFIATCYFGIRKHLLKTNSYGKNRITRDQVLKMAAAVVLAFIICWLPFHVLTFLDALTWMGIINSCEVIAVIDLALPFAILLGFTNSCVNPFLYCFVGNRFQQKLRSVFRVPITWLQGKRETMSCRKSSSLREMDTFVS

[2] = biological target: Angiotensin II receptor (Homo sapiens) (UniProt P30556+P50052); test: Ratio of inhibitory concentration against AT2 receptor and AT1 receptor of human adrenal membrane
Oryctolagus cuniculus = species: Oryctolagus cuniculus; test: Ratio of inhibitory concentration against AT2 receptor of rat midbrain to AT1 receptor of rabbit aorta
[3] = biological target: T2, Type-1 angiotensin II receptor (Oryctolagus cuniculus, UniProt P34976); test: […] inhibitory concentration against Angiotensin II receptor, type 1 of rabbit aorta membrane
T2 sequence (P34976 whole entry): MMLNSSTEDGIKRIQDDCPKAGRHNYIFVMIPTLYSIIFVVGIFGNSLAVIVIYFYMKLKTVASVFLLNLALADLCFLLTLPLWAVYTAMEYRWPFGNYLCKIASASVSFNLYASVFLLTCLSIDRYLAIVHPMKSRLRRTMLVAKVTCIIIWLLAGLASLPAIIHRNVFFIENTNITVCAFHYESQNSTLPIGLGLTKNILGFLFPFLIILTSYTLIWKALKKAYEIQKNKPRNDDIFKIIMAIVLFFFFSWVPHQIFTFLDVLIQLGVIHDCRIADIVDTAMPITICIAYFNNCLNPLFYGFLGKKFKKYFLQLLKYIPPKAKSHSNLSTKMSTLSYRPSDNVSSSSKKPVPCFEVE

[4] = biological target: Angiotensin II receptor (Rattus norvegicus) (UniProt P29089+P25095+P35351); test: Ratio of inhibitory concentration against AT2 receptor and AT1 receptor of rat adrenal membrane
[5] = biological target: T3, Angiotensin II receptor (AT-1) type-1 (Rattus norvegicus, UniProt P29089+P25095); test: […] inhibitory concentration against Angiotensin II receptor, type 1 of rat adrenal membrane
T3 sequence (P29089 whole entry): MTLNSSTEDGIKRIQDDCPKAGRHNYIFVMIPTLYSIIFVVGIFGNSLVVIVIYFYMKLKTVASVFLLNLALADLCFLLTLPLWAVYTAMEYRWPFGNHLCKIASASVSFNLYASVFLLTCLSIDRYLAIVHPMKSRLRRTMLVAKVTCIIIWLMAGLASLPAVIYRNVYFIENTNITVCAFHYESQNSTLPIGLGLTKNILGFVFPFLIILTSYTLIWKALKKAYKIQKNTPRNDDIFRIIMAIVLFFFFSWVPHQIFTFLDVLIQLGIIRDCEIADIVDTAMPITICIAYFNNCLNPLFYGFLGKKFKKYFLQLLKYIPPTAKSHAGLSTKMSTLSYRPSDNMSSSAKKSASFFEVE
T3 sequence (P25095 whole entry): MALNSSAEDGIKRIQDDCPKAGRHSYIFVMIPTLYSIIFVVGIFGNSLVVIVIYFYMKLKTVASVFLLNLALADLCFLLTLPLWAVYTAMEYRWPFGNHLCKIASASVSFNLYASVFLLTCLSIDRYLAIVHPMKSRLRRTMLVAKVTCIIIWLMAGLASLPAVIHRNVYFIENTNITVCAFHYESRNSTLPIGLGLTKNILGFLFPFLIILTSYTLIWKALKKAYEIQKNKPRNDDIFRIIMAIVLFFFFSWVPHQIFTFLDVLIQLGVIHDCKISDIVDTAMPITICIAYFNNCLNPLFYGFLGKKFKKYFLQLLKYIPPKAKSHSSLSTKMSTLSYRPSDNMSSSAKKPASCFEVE

[6] = biological target: T1, Type-2 angiotensin II receptor; test: […] inhibitory concentration against AT2 receptor of rat adrenal membrane
[7] = biological target: T4, Type-1 angiotensin II receptor (Homo sapiens, UniProt P30556); test: […] inhibitory concentration against Angiotensin II receptor, type 1 of human adrenal membrane
T4 sequence (P30556 whole entry): T2 sequence (P34976 whole entry) with M2I, A49V, V254I, V270I, H272R, K311R, S349T, V353A

[8] = biological target: T5, Type-2 angiotensin II receptor (Homo sapiens, UniProt P50052); test: […] inhibitory concentration against AT2 receptor of human adrenal membrane
T5 sequence (P50052 whole entry): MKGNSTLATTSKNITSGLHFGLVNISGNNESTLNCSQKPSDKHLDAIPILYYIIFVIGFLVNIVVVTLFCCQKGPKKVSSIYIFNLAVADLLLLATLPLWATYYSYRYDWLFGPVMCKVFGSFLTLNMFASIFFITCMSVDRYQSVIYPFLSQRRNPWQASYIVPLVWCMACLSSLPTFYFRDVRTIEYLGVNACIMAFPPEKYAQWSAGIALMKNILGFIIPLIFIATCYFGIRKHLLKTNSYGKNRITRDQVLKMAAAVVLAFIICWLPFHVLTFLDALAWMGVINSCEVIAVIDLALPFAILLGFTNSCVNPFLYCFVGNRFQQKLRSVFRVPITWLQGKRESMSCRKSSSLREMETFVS

Sequence of Angiotensin II receptor (Homo sapiens) (P30556 whole entry, looked up, one chain of several): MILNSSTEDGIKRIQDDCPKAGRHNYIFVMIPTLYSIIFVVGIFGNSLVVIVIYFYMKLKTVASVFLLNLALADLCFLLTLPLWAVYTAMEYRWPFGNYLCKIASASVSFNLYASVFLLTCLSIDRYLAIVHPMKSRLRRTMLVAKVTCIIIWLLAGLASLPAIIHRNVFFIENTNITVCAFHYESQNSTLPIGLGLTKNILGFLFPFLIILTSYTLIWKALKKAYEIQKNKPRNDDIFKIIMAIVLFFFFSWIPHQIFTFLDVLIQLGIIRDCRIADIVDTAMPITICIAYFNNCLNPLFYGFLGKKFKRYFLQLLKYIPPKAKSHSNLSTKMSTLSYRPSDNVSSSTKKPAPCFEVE

pIC50 [1]	Ratio [2]	Ratio (Oryctolagus cuniculus)	pIC50 [3]	Ratio [4]	IC50 [5]	pIC50 [6]	pIC50 [7]	pIC50 [8]	Structure (SMILES)
9.60	1.6	1.6	9.27	2.5	0.14 nM	9.03	8.24	8.05	CCc1ccc(C(=O)NS(=O)(=O)c2ccccc2-c2ccc(Cn3c(CC)nc4ccc(NC(=O)N(C)C(C)C)cc4c3=O)c(F)c2)cc1
9.70	0.9	0.33	9.21	1.1	0.3 nM	9.52	8.00	8.04	CCc1nc2ccc(NC(=O)N(C)C(C)C)cc2c(=O)n1Cc1ccc(-c2ccccc2S(=O)(=O)NC(=O)OCCC(C)C)cc1F
9.00	2.3	1.7	9.28	2.1	0.17 nM	9.42	8.82	8.46	CCCc1nc2ccc(NC(=O)NC(C)C)cc2c(=O)n1Cc1ccc(-c2ccccc2S(=O)(=O)NC(=O)COCC(C)C)cc1F
9.15	0.93	0.59	8.92	1.2	0.5 nM	9.20	7.82	7.96	Cc1nc2ccc(NC(=O)NC(C)C)cc2c(=O)n1Cc1ccc(-c2ccccc2S(=O)(=O)NC(=O)OCCC(C)C)cc1F
9.32	4.7	2.3	9.62	4.3	0.13 nM	9.30	9.15	8.48	CCCc1nc2ccc(NC(=O)N3CCOCC3)cc2c(=O)n1Cc1ccc(-c2ccccc2S(=O)(=O)NC(=O)OCCC(C)C)cc1F
9.54	7.6	2.5	9.89	1.5	0.23 nM	9.44	8.92	8.11	CCCCc1nc2ccc(NC(=O)N(C)C(C)C)cc2c(=O)n1Cc1ccc(-c2ccccc2S(=O)(=O)NC(=O)OCCC2CC2)cc1F
9.60	2	1.3	9.72	2.5	0.14 nM	9.47	8.80	8.51	CCc1ccc(C(=O)NS(=O)(=O)c2ccccc2-c2ccc(Cn3c(CC)nc4ccc(NC(=O)NC(C)C)cc4c3=O)c(F)c2)c(F)c1
8.62	–	–	9.62	–	–	–	–	7.22	CCCCOC(=O)NS(=O)(=O)c1ccccc1-c1ccc(Cn2c(CCCC)nc3ccc(NC(=O)N(C)C(C)C)cc3c2=O)cc1
8.74	0.47	0.79	8.64	2.5	1.3 nM	9.20	7.07	7.43	CCc1nc2ccc(NC(=O)c3ccccn3)cc2c(=O)n1Cc1ccc(-c2ccccc2S(=O)(=O)NC(=O)OCCC(C)C)cc1F
8.80	1.1	0.46	8.40	1.4	3.9 nM	8.35	7.23	7.19	CCNC(=O)Nc1ccc2nc(CC)n(Cc3ccc(-c4ccccc4S(=O)(=O)NC(=O)c4ccccc4F)cc3F)c(=O)c2c1
–	–	–	8.82	–	–	–	–	8.15	CCCCCN(C(=O)c1ccccc1)c1ccc2nc(CCC)n(Cc3ccc(-c4ccccc4-c4nn[nH]n4)cc3)c(=O)c2c1
9.68	0.18	0.1	8.66	0.3	2 nM	9.21	7.19	7.96	CCc1nc2ccc(NC(=O)N(C)C(C)C)cc2c(=O)n1Cc1ccc(-c2ccccc2S(=O)(=O)NC(=O)COCC(C)C)cc1F
9.36	8.7	2.7	9.72	3.2	0.25 nM	9.11	9.05	8.11	CCCCOC(=O)NS(=O)(=O)c1ccccc1-c1ccc(Cn2c(CCCC)nc3ccc(NC(=O)N(C)C(C)C)cc3c2=O)c(F)c1
9.12	0.62	0.97	9.11	2.7	0.39 nM	8.98	7.83	8.03	CCc1nc2ccc(NC(=O)N(C)C(C)C)cc2c(=O)n1Cc1ccc(-c2ccccc2S(=O)(=O)NC(=O)OCC=C(C)C)cc1F
9.55	5.3	1.4	9.70	2.3	0.11 nM	9.68	9.08	8.36	CCCc1nc2ccc(NC(=O)NC(C)C)cc2c(=O)n1Cc1ccc(-c2ccccc2S(=O)(=O)NC(=O)c2ccc(CC)cc2F)cc1F
9.68	4.4	1.3	9.64	1.5	0.14 nM	9.66	8.72	8.10	CCCCc1nc2ccc(NC(=O)N(C)C(C)C)cc2c(=O)n1Cc1ccc(-c2ccccc2S(=O)(=O)NC(=O)OCCC(C)C)cc1F
9.25	0.9	0.61	9.04	0.92	0.64 nM	9.10	8.14	8.19	CCc1nc2ccc(NC(=O)NC(C)C)cc2c(=O)n1Cc1ccc(-c2ccccc2S(=O)(=O)NC(=O)OCCC2CC2)cc1F
8.89	1	0.38	8.42	2.2	1.3 nM	8.60	7.48	7.49	CCCCOC(=O)NS(=O)(=O)c1ccccc1-c1ccc(Cn2c(CC)nc3ccc(NC(=O)N4CCOCC4)cc3c2=O)c(F)c1
9.51	–	0.16	8.70	1.5	0.66 nM	9.02	7.74	7.19	CCc1nc2ccc(NC(=O)N3CCOCC3)cc2c(=O)n1Cc1ccc(-c2ccccc2S(=O)(=O)NC(=O)OCCC(C)C)cc1F
